Earlier results as cited in US11878022B2 (Novitium Pharma LLC, priority 2020, dated 2024).

Experiments:
[1] = in vivo
[2] = in vivo; remark: listed apart in the source

NS(=O)(=O)c1cc2c(cc1Cl)NCNS2(=O)=O [Hydrochlorothiazide, 6-Chloro-3,4-dihydro-2H-1,2,4-benzothiadiazine-7-sulfonamide-1,1-dioxide]
Binding to serum proteins [1]: 40-68%
absorbed dose excreted in urine as unchanged drug ([1]; po): greater than 95%
Onset of action after dosing [2]: ≤ 2 h
persistence of activity [2]: up to 24 hours
time of peak effect [2]: about 4 hours
